Results from publication PMC8541513, “Stereoselective Synthesis of the Di-Spirooxindole Analogs Based Oxindole and Cyclohexanone Moieties as Potential Anticancer Agents” (Molecules, 2021).
Read-outs that look alike come from different tables or passages of the source.

Assays:
Human Fibroblast BJ = assay: MTT cytotoxicity assay against BJ human fibroblast cells; type: cell-based; conditions: 48 h, 1-30 µM, ± SD of three independent experiments
Experimental: (§1) Cytotoxicity against BJ human fibroblast cells and cytotoxicity against PC3, HeLa, MCF-7, and MDA-MB231 cancer cell lines were evaluated by following the procedure as described in the literature (Supplementary Materials). […]
(§2) The Biological Activity Assays Protocols
(§3) Cytotoxic activity of compounds was evaluated in 96-well flat-bottomed micro plates by using the standard MTT (3-[4, 5-dimethylthiazole-2-yl]-2, 5-diphenyl-tetrazolium bromide) colorimetric assay.
(§4) For this purpose, PC3 cells (Prostate Cancer) / BJ Human fibroblast cells / HeLa cells (Cervical Cancer) / MCF-7 and MDA-MB-231 breast cancer cell line were cultured in Dulbecco’s Modified Eagle Medium, supplemented with 5% of fetal bovine serum (FBS), 100 IU/ml of penicillin and 100 µg/ml of streptomycin in 75 cm2 flasks, and kept in 5% CO2 incubator at 37 °C. Exponentially growing cells were harvested, counted with haemocytometer and diluted with a particular medium. Cell culture with the concentration of 1x10^5 cells/ml was prepared and introduced (100 µL/well) into 96-well plates. After overnight incubation, medium was removed and 200 µL of fresh medium was added with different concentrations of compounds (1-30µM). After 48 hrs, 200 µL MTT (0.5 mg/ml) was added to each well and incubated further for 4 hrs. Subsequently, 100µL of DMSO was added to each well. The extent of MTT reduction to formazan within cells was calculated by measuring the absorbance at 570 nm, using a micro plate reader (Spectra Max plus, Molecular Devices, CA, USA). The cytotoxicity was recorded […]
(§5) (1 picture or pasted object on this page, not shown here) […]
(§6) as concentration causing 50% growth inhibition (IC50) for PC3 cells. The percent inhibition was calculated by using the following formula:
(§7) % inhibition = 100-((mean of O.D of test compound – mean of O.D of negative control)/ (mean of O.D of positive control – mean of O.D of negative control)*100).
(§8) The results (% inhibition) were processed by using Soft- Max Pro software (Molecular Device, USA).
(§9) Standard drug used in the MTT assay was doxorubicin. […]

Prostate PC3 = assay: MTT anticancer assay, prostate PC3 cells; type: cell-based; conditions: Homo sapiens, PC-3, 48 h, 1-30 µM, ± SD of three independent experiments
Experimental: (§10) The antiproliferative activity against four cancer cell lines, including prostate PC3, cervical HeLa, and triple-negative breast cancer (MCF-7 and MDA-MB231) was evaluated by MTT assay, while standard drug doxorubicin was used as a reference for comparison (Table 1).
as §1, §2, §3, §4, §5, §6, §7, §8, §9

Cervical HeLa = assay: MTT anticancer assay, cervical HeLa cells; type: cell-based; conditions: 48 h, 1-30 µM, ± SD of three independent experiments; for IC50: Homo sapiens, HeLa
Experimental: as §10, §1, §2, §3, §4, §5, §6, §7, §8, §9

Breast MCF-7 = assay: MTT anticancer assay, breast MCF-7 cells; type: cell-based; conditions: Homo sapiens, MCF7, 48 h, 1-30 µM, ± SD of three independent experiments
Experimental: as §10, §1, §2, §3, §4, §5, §6, §7, §8, §9

Breast MDA-MB231 = assay: MTT anticancer assay, breast MDA-MB231 cells; type: cell-based; conditions: Homo sapiens, MDA-MB-231, 48 h, 1-30 µM, ± SD of three independent experiments
Experimental: as §10, §1, §2, §3, §4, §5, §6, §7, §8, §9

[1] = system: MCF-7 breast cancer cells; parameters: method as in PMID 28126436, PMID 29413708; conditions: cited from earlier work
HeLa cancer cell line = system: HeLa cancer cell line; parameters: method as in doi:10.1016/j.molstruc.2019.03.032; conditions: cited from earlier work
HeLa cancer cells = system: HeLa cancer cells; parameters: method as in PMID 30844686; conditions: cited from earlier work
[2] = system: K562 leukemia cancer cells; parameters: method as in PMID 28126436, PMID 29413708; conditions: cited from earlier work
HCT-116 = system: HCT-116; parameters: method as in PMID 30802707; conditions: cited from earlier work
HepG2 [3] = system: HepG2; parameters: method as in PMID 30802707; conditions: cited from earlier work
PC-3 = system: PC-3; parameters: method as in PMID 30802707; conditions: cited from earlier work
HepG2 [4] = system: HepG2; parameters: method as in Barakat et al. (15); conditions: ref Barakat et al. (15); cited from earlier work

## O=C1/C(=C/c2ccc(C(F)(F)F)cc2)CCC[C@@]12[C@H](c1ccc(C(F)(F)F)cc1)[C@H]1C[C@@H]3CCCC[C@@H]3N1[C@]21C(=O)Nc2cc(Cl)ccc21 [Compound 4m, (1. S,1′S,3′S,4a′S,8a′S,9a′R)-6″-Chloro-3-((E)-4-(trifluoromethyl)benzylidene)-1′-(4-(trifluoromethyl)phenyl)-4a′,5′,6′,7′,8′,8a′,9′,9a′-octahydro-1′H-dispiro[cyclohexane-1,2′-pyrrolo[1,2-a]indole-3′,3″-indoline]-2,2″-dione]
Human Fibroblast BJ
  IC50: > 30 µM
Prostate PC3
  IC50: > 30 µM
Cervical HeLa
  IC50: 24.6 ± 0.4 µM
Breast MCF-7
  IC50: > 30 µM
Breast MDA-MB231
  IC50: > 30 µM
other
  melting point: 78 to 79 °C

## Cc1ccc2c(c1)[C@]1(C(=O)N2)N2[C@H](C[C@@H]3CCCC[C@@H]32)[C@@H](c2ccc(C(F)(F)F)cc2)[C@@]12CCC/C(=C\c1ccc(C(F)(F)F)cc1)C2=O [Compound 4n, (1. S,1′S,3′S,4a′S,8a′S,9a′R)-5″-Methyl-3-((E)-4-(trifluoromethyl)benzylidene)-1′-(4-(trifluorom-thyl)phenyl)-4a′,5′,6′,7′,8′,8a′,9′,9a′-octahydro-1′H-dispiro[cyclohexane-1,2′-pyrrolo[1,2-a]indole-3′,3″-indoline]-2,2″-dione]
Human Fibroblast BJ
  IC50: > 30 µM
Prostate PC3
  IC50: > 30 µM
Cervical HeLa
  IC50, Cervical HeLa: inactive
  IC50: > 30 µM
Breast MCF-7
  IC50: > 30 µM
Breast MDA-MB231
  IC50: > 30 µM
other
  melting point: 73 to 74 °C

## O=c1[nH]cc(F)c(=O)[nH]1 [Compound 5-FU, 5-fluorouracil]
[1]
  IC50: 78.28 ± 0.2 µM

## COc1cccc2c1C(=O)c1c(O)c3c(c(O)c1C2=O)C[C@@](O)(C(=O)CO)C[C@@H]3O[C@H]1C[C@H](N)[C@H](O)[C@H](C)O1 [Doxorubicin, reference compound]
Human Fibroblast BJ
  IC50: > 30 µM
Prostate PC3
  IC50: 1.9 ± 0.4 µM
Cervical HeLa
  IC50: 0.9 ± 0.14 µM
Breast MCF-7
  IC50: 0.79 ± 0.05 µM
Breast MDA-MB231
  IC50: 0.32 ± 0.002 µM
HeLa cancer cell line
  IC50: 1.2 µM

## O=C(c1ccccn1)[C@@H]1[C@@H](c2ccccc2Cl)[C@H](c2ccccc2)N[C@@]12C(=O)Nc1ccccc12 [III]
HeLa cancer cells
  selectivity between HeLa cancer cells and Vero healthy cells: 3 fold

## O=C1C(=Cc2ccc(Br)cc2)CCCC12C1CCCN1C1(C(=O)Nc3ccccc31)C2c1ccc(Br)cc1 (centres unmarked) [VIII]
[1]
  IC50: 15.32 ± 0.02 µM

## COc1ccc(C=C2CCCC3(C2=O)C(c2ccc(OC)cc2)C2CSCN2C32C(=O)Nc3ccccc32)cc1 (centres unmarked) [VII]
[2]
  IC50: 13.4 ± 0.14 µM

## O=C(c1ccc(F)cc1)[C@H]1[C@H](c2ccc(Cl)cc2Cl)C2CSCN2[C@]12C(=O)Nc1ccccc12 (some centres unmarked) [VI]
HeLa cancer cell line
  IC50: 11.2 µM

## O=C(/C=C/c1ccc(Cl)cc1Cl)[C@H]1[C@H](c2ccc(Cl)cc2Cl)[C@H]2CSCN2[C@]12C(=O)Nc1ccccc12 [V]
HCT-116; HCT-116, HepG2, PC-3 versus normal cells
  selectivity index for the cancer cells versus the normal cells: > 2
HCT-116
  IC50: < 4 µM
HepG2 [3]
  IC50: < 4 µM
PC-3
  IC50: < 4 µM

## N.N.[Cl][Pt][Cl] [cisplatin]
HepG2 [4]
  IC50: 5.5 µM
